Laboratory results: patent US9302999B2, “Substituted triazoles as herbicides” (E. I. DU PONT DE NEMOURS AND COMPANY, priority 2012, dated 2016)

Assays:
Type in all cases: in vivo
corn (Zea mays) = assay: Test A pre-/postemergence: corn; settings: for Corn plant response rating: Postemergence; for Plant response rating, Corn: Preemergence
How it was run: (§1)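 Soil medium was loam blended with sand; treatments pre- and postemergence were applied concurrently, postemergence at one- to two-leaf stage. Approximately ten days in greenhouse preceded visual comparison with untreated controls, scored 0 (no effect) to 100 (complete control).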

[1] = tested on: crabgrass, large (large crabgrass, Digitaria sanguinalis); assay: Test A pre-/postemergence: crabgrass, large; settings: for Crabgrass, Large plant response rating: Postemergence; for Plant response rating, Crabgrass, Large: Preemergence
How it was run: as §1

[2] = tested on: morningglory (Ipomoea spp.); assay: Test A pre-/postemergence: morningglory; settings: for Morningglory plant response rating: Postemergence; for Plant response rating, Morningglory: Preemergence
How it was run: as §1

[3] = tested on: wheat (Triticum aestivum); assay: Test A pre-/postemergence: wheat; settings: for Wheat plant response rating: Postemergence; for Plant response rating, Wheat: Preemergence
How it was run: as §1

[4] = tested on: barnyardgrass (Echinochloa crus-galli); assay: Test C flooded paddy test: barnyardgrass; settings: scale 0 to 100 (0 no effect, 100 complete control)
How it was run: (§2)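 Plants were grown to the 2-leaf stage, pots flooded to 3 cm above soil, and test compounds applied directly to the paddy water, with that depth held throughout. After 13 to 15 days in a greenhouse, injury was visually rated against controls on a 0 (no effect) to 100 (complete control) scale.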

[5] = tested on: pigweed (Amaranthus retroflexus); assay: Test A pre-/postemergence: pigweed; settings: for Pigweed plant response rating: Postemergence; for Plant response rating, Pigweed: Preemergence
How it was run: as §1

rice (Oryza sativa) = assay: Test C flooded paddy test: rice; settings: scale 0 to 100 (0 no effect, 100 complete control)
How it was run: as §2

[6] = tested on: foxtail, giant (giant foxtail, Setaria faberii); assay: Test A pre-/postemergence: foxtail, giant; settings: for Foxtail, Giant plant response rating: Postemergence; for Plant response rating, Foxtail, Giant: Preemergence
How it was run: as §1

[7] = tested on: ducksalad (Heteranthera limosa); assay: Test C flooded paddy test: ducksalad; settings: scale 0 to 100 (0 no effect, 100 complete control)
How it was run: as §2

[8] = tested on: velvetleaf (Abutilon theophrasti); assay: Test A pre-/postemergence: velvetleaf; settings: for Velvetleaf plant response rating: Postemergence; for Plant response rating, Velvetleaf: Preemergence
How it was run: as §1

[9] = tested on: barnyardgrass (Echinochloa crus-galli); assay: Test A pre-/postemergence: barnyardgrass; settings: for Barnyardgrass plant response rating: Postemergence; for Plant response rating, Barnyardgrass: Preemergence
How it was run: as §1

[10] = tested on: sedge, umbrella (small-flower umbrella sedge, Cyperus difformis); assay: Test C flooded paddy test: sedge, umbrella; settings: scale 0 to 100 (0 no effect, 100 complete control)
How it was run: as §2

[11] = 125 g ai/ha, 0 to 100 scale, 0 is no effect, 100 is complete control
[12] = 500 g ai/ha, visual rating on 0 to 100 scale (0 no effect, 100 complete control), approximately ten days
[13] = 125 g ai/ha, 0 to 100 scale (0 no effect, 100 complete control)
[14] = 500 g ai/ha, 0 to 100 scale, 0 is no effect, 100 is complete control
[15] = Flood (flooded paddy test), 62 g ai/ha, visual rating after 13 to 15 days
[16] = Flood (flooded paddy test), 125 g ai/ha, visual rating after 13 to 15 days
[17] = Flood (flooded paddy test), 250 g ai/ha, visual rating after 13 to 15 days

Cc1nn(-c2ccc(C(F)(F)F)cc2)nc1Cn1cc(C(F)(F)F)cn1 [Compound 32]
30: Crabgrass, Large plant response rating [1, 12] | Plant response rating, Crabgrass, Large [1, 14]
100: Pigweed plant response rating [5, 12]
50: Morningglory plant response rating [2, 12]
80: Plant response rating, Foxtail, Giant [6, 14]
10: Corn plant response rating (corn (Zea mays); [12]) | Plant response rating, Crabgrass, Large [1, 13] | Morningglory plant response rating [2, 11] | Foxtail, Giant plant response rating [6, 11] | Plant response rating, Foxtail, Giant [6, 13] | Barnyardgrass plant response rating [9, 11] | Barnyardgrass plant response rating [9, 12]
60: Pigweed plant response rating [5, 11]
70: Plant response rating, Pigweed [5, 14]
20: Crabgrass, Large plant response rating [1, 11] | Foxtail, Giant plant response rating [6, 12] | Velvetleaf plant response rating [8, 11] | Velvetleaf plant response rating [8, 12]
0: Corn plant response rating (corn (Zea mays); [11]) | Plant response rating, Corn (corn (Zea mays); [13]) | Plant response rating, Corn (corn (Zea mays); [14]) | Plant response rating, Morningglory [2, 13] | Plant response rating, Morningglory [2, 14] | Wheat plant response rating [3, 11] | Wheat plant response rating [3, 12] | Plant response rating, Wheat [3, 13] | Plant response rating, Wheat [3, 14] | Plant response rating, Barnyardgrass [4, 15] | Plant response rating, Barnyardgrass [4, 16] | Plant response rating, Barnyardgrass [4, 17] | Plant response rating, Barnyardgrass ([4]; Flood, 31 g ai/ha) | Plant response rating, Pigweed [5, 13] | Plant response rating, Rice (rice (Oryza sativa); [15]) | Plant response rating, Rice (rice (Oryza sativa); [16]) | Plant response rating, Rice (rice (Oryza sativa); [17]) | Plant response rating, Rice (rice (Oryza sativa); Flood, 31 g ai/ha) | Plant response rating, Ducksalad [7, 15] | Plant response rating, Ducksalad [7, 16] | Plant response rating, Ducksalad [7, 17] | Plant response rating, Ducksalad ([7]; Flood, 31 g ai/ha) | Plant response rating, Velvetleaf [8, 13] | Plant response rating, Velvetleaf [8, 14] | Plant response rating, Barnyardgrass [9, 13] | Plant response rating, Barnyardgrass [9, 14] | Plant response rating, Sedge, Umbrella [10, 15] | Plant response rating, Sedge, Umbrella [10, 16] | Plant response rating, Sedge, Umbrella [10, 17] | Plant response rating, Sedge, Umbrella ([10]; Flood, 31 g ai/ha)

Cc1nn(-c2ccc(F)cc2)nc1Cn1cc(C(F)(F)F)nc1Cl [Compound 35]
20: Corn plant response rating (corn (Zea mays); [11]) | Plant response rating, Morningglory [2, 13]
70: Plant response rating, Ducksalad [7, 16] | Velvetleaf plant response rating [8, 11]
80: Crabgrass, Large plant response rating [1, 11] | Plant response rating, Foxtail, Giant [6, 13] | Plant response rating, Sedge, Umbrella [10, 16] | Plant response rating, Sedge, Umbrella [10, 17]
0: Plant response rating, Wheat [3, 13] | Plant response rating, Wheat [3, 14] | Plant response rating, Barnyardgrass [4, 15] | Plant response rating, Barnyardgrass [4, 16] | Plant response rating, Barnyardgrass ([4]; Flood, 31 g ai/ha) | Plant response rating, Rice (rice (Oryza sativa); [15]) | Plant response rating, Rice (rice (Oryza sativa); [16]) | Plant response rating, Rice (rice (Oryza sativa); [17]) | Plant response rating, Rice (rice (Oryza sativa); Flood, 31 g ai/ha)
60: Wheat plant response rating [3, 12] | Foxtail, Giant plant response rating [6, 11] | Plant response rating, Barnyardgrass [9, 13]
100: Plant response rating, Crabgrass, Large [1, 14] | Morningglory plant response rating [2, 12] | Pigweed plant response rating [5, 11] | Pigweed plant response rating [5, 12] | Plant response rating, Pigweed [5, 14] | Plant response rating, Foxtail, Giant [6, 14] | Velvetleaf plant response rating [8, 12]
50: Corn plant response rating (corn (Zea mays); [12]) | Plant response rating, Morningglory [2, 14] | Plant response rating, Velvetleaf [8, 14]
65: Plant response rating, Ducksalad [7, 15]
75: Plant response rating, Ducksalad [7, 17] | Plant response rating, Sedge, Umbrella [10, 15] | Plant response rating, Sedge, Umbrella ([10]; Flood, 31 g ai/ha)
30: Plant response rating, Corn (corn (Zea mays); [14]) | Plant response rating, Barnyardgrass [4, 17] | Plant response rating, Velvetleaf [8, 13]
10: Plant response rating, Corn (corn (Zea mays); [13]) | Wheat plant response rating [3, 11]
40: Plant response rating, Ducksalad ([7]; Flood, 31 g ai/ha) | Barnyardgrass plant response rating [9, 11]
90: Crabgrass, Large plant response rating [1, 12] | Plant response rating, Crabgrass, Large [1, 13] | Morningglory plant response rating [2, 11] | Plant response rating, Pigweed [5, 13] | Foxtail, Giant plant response rating [6, 12] | Barnyardgrass plant response rating [9, 12] | Plant response rating, Barnyardgrass [9, 14]
